Key:
barnyardgrass [1] = assay: Test Example 1: foliage treatment, upland pot test; format: in vivo, Echinochloa crus-galli L.; conditions: active ingredient 500 g/ha, observed 18th to 23rd day, 0 = non-treated, 100 = complete kill
In short: (§1)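 Applied as a post-emergence foliar spray: formulated compound diluted to 500 L/ha with spreader at 0.1% (v/v). Treatment timing—rice at 1.2–2.6, wheat at 1.3–2.4, barnyardgrass at 1.3–2.8, soybean at 0.1–0.4 leaf stage. Scored visually on a 0–100% control scale after 18–23 days.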

redroot pigweed [2] = assay: Test Example 1: foliage treatment, upland pot test; format: in vivo, Amaranthus retroflexus L.; conditions: active ingredient 500 g/ha, observed 18th to 23rd day, 0 = non-treated, 100 = complete kill
wheat [3] = assay: Test Example 2: soil surface treatment, upland pot test; format: in vivo, Triticum spp.; conditions: observed 20th to 28th day
In short: (§2)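 Pre-emergence: the soil surface was sprayed 1 day after sowing with wettable powder or emulsifiable concentrate diluted in water at 1,500 L/ha, at a predetermined active ingredient amount. Growth control was scored visually 20–28 days after treatment, 0 (untreated) to 100 (complete kill).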

japanese bulrush = assay: Test Example 3: paddy pot test, application under submerged conditions; format: in vivo, Scirpus juncoides; conditions: submerged application at 0.5 leaf stage, visually observed 14 days after application, 0 = non-treated, 100 = complete kill
In short: (§3)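 After sowing seeds and planting wapato tubers in flooded paddy soil, an aqueous dilution of the formulated compound was added to the 3–4 cm flood water at early leaf stage. Percent growth control relative to the untreated plot was assessed visually on day 14.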

green foxtail [4] = assay: Test Example 2: soil surface treatment, upland pot test; format: in vivo, Setaria viridis L.; conditions: observed 20th to 28th day
In short: as §2

rice [5] = assay: as above; format: in vivo, Oryza sativa L.; conditions: observed 20th to 28th day
In short: as §2

crabgrass [6] = assay: as above; format: in vivo, Digitaria sanguinalis L.; conditions: observed 20th to 28th day
In short: as §2

barnyardgrass [7] = assay: as above; format: in vivo, Echinochloa crus-galli L.; conditions: observed 20th to 28th day
In short: as §2

rice [8] = assay: Test Example 1: foliage treatment, upland pot test; format: in vivo, Oryza sativa L.; conditions: crop, active ingredient 500 g/ha, observed 18th to 23rd day, 0 = non-treated, 100 = complete kill
In short: as §1

green foxtail [9] = assay: Test Example 1: foliage treatment, upland pot test; format: in vivo, Setaria viridis L.; conditions: active ingredient 500 g/ha, observed 18th to 23rd day, 0 = non-treated, 100 = complete kill
prickly sida [10] = assay: Test Example 2: soil surface treatment, upland pot test; format: in vivo, Sida spinosa L.; conditions: observed 20th to 28th day
In short: as §2

soybean [11] = assay: as above; format: in vivo, Glycine max Merr.; conditions: observed 20th to 28th day
In short: as §2

redroot pigweed [12] = assay: as above; format: in vivo, Amaranthus retroflexus L.; conditions: observed 20th to 28th day
In short: as §2

wheat [13] = assay: Test Example 1: foliage treatment, upland pot test; format: in vivo, Triticum spp.; conditions: crop, active ingredient 500 g/ha, observed 18th to 23rd day, 0 = non-treated, 100 = complete kill
In short: as §1

corn [14] = assay: Test Example 1: foliage treatment, upland pot test; format: in vivo, Zea mays L.; conditions: crop, active ingredient 500 g/ha, observed 18th to 23rd day, 0 = non-treated, 100 = complete kill
In short: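 In this upland pot foliage test, corn plants at 2.1 to 3.2 leaf stages were sprayed by a small size sprayer. The spray was a conventionally formulated wettable powder or emulsifiable concentrate weighed to a set active ingredient amount, diluted in water at 500 L/ha, plus 0.1% (v/v) agricultural spreader. Visual assessment on days 18 to 23 gave growth controlling degree (%), where 0 equals untreated and 100 means complete kill.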

velvetleaf [15] = assay: Test Example 2: soil surface treatment, upland pot test; format: in vivo, Abutilon theophrasti MEDIC.; conditions: observed 20th to 28th day
In short: as §2

velvetleaf [16] = assay: Test Example 1: foliage treatment, upland pot test; format: in vivo, Abutilon theophrasti MEDIC.; conditions: active ingredient 500 g/ha, observed 18th to 23rd day, 0 = non-treated, 100 = complete kill
barnyardgrass [17] = assay: Test Example 3: paddy pot test, application under submerged conditions; format: in vivo, Echinochloa crus-galli L.; conditions: submerged application at 0.5 leaf stage, visually observed 14 days after application, 0 = non-treated, 100 = complete kill
In short: as §3

corn [18] = assay: Test Example 2: soil surface treatment, upland pot test; format: in vivo, Zea mays L.; conditions: observed 20th to 28th day
In short: as §2

japanese ribbon wapato = assay: Test Example 3: paddy pot test, application under submerged conditions; format: in vivo, Sagittaria pygniaea; conditions: submerged application at primary leaf stage, visually observed 14 days after application, 0 = non-treated, 100 = complete kill
In short: as §3

soybean [19] = assay: Test Example 1: foliage treatment, upland pot test; format: in vivo, Glycine max Merr.; conditions: crop, active ingredient 500 g/ha, observed 18th to 23rd day, 0 = non-treated, 100 = complete kill
In short: as §1

rice (var. Nihonbare) = assay: Test Example 3: paddy pot test, transplanted rice; format: in vivo, Oryza sativa L.; conditions: applied 4th day after transplantation, visually observed 21st day after application, 0 = non-treated, 100 = complete kill
In short: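 Rice (2-leaf stage) was transplanted 3 cm deep into puddled, leveled paddy soil under 3–4 cm flooding. On day 4 after transplanting, diluted wettable powder or emulsifiable concentrate was pipetted onto the water at a predetermined active-ingredient dose. Growth control (0 = untreated, 100 = complete kill) was scored visually 21 days later.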

prickly sida [20] = assay: Test Example 1: foliage treatment, upland pot test; format: in vivo, Sida spinosa L.; conditions: active ingredient 500 g/ha, observed 18th to 23rd day, 0 = non-treated, 100 = complete kill
crabgrass [21] = assay: Test Example 1: foliage treatment, upland pot test; format: in vivo, Digitaria sanguinalis L.; conditions: active ingredient 500 g/ha, observed 18th to 23rd day, 0 = non-treated, 100 = complete kill
tall morningglory = assay: Test Example 1: foliage treatment, upland pot test; format: in vivo, Ipomoea purpurea L.; conditions: active ingredient 500 g/ha, observed 18th to 23rd day, 0 = non-treated, 100 = complete kill
Description: Upland field soil was put into a 1/170,000 ha pot, and seed of various plants were sown. Then, when the plants reached predetermined leaf stages ((1) barnyardgrass: 1.3 to 2.8 leaf stages, (2) crabgrass: 1.0 to 2.8 leaf stages, (3) green foxtail: 1.3 to 2.6 leaf stages, (4) redroot pigweed: 0.1 to 1.2 leaf stages, (5) prickly sida: 0.1 to 1.2 leaf stages, (6) velvetleaf: 0.1 to 1.2 leaf stages, (7) tall morningglory: 0.1 to 1.5 leaf stages, (8) rice: 1.2 to 2.6 leaf stages, (9) wheat: 1.3 to 2.4 leaf stages, (10) corn, 2.1 to 3.2 leaf stages, (11) soybean: 0.1 to 0.4 leaf stage), a wettable powder or emulsifiable concentrate having the compound of the present invention formulated in accordance with a usual formulation method, was weighed so that the active ingredient would be a predetermined amount, and diluted with water in an amount of 500 L/ha. To the diluted solution, 0.1% (v/v) of agricultural spreader was added. The herbicide thus adjusted was applied by a small size sprayer for foliage treatment. On the 18th to 23rd days after the application of the herbicide, the growth of the respective plants was visually observed, and the herbicidal effects were evaluated by the growth controlling degrees (%) ranging from 0 (equivalent to the non-treated plot) to 100 (complete kill), whereby the results shown in Table 3, were obtained.

[22] = active ingredient 1000 g/ha, 0 = non-treated, 100 = complete kill

SMILES | Growth controlling degree (%) Barnyardgrass (barnyardgrass [1]) [%] | Growth controlling degree (%) Redroot pigweed (redroot pigweed [2]) [%] | Growth controlling degree (%) wheat (wheat [3]; active ingredient 250 g/ha) [%] | Growth controlling degree (%) Japanese bulrush (japanese bulrush; active ingredient 250 g/ha) [%] | Growth controlling degree (%) Green foxtail (green foxtail [4]; active ingredient 250 g/ha) [%] | Growth controlling degree (%) Rice (rice [5]; active ingredient 250 g/ha) [%] | Growth controlling degree (%) Crabgrass (crabgrass [6]; active ingredient 250 g/ha) [%] | Growth controlling degree (%) Barnyardgrass (barnyardgrass [7]; active ingredient 250 g/ha) [%] | Growth controlling degree (%) Rice (rice [8]) [%] | Growth controlling degree (%) Green foxtail (green foxtail [9]) [%] | Growth controlling degree (%) Prickly sida (prickly sida [10]; active ingredient 250 g/ha) [%] | Growth controlling degree (%) Soyabean (soybean [11]; active ingredient 250 g/ha) [%] | Growth controlling degree (%) Redroot pigweed (redroot pigweed [12]; active ingredient 250 g/ha) [%] | Growth controlling degree (%) wheat (wheat [13]) [%] | Growth controlling degree (%) Corn (corn [14]) [%] | Growth controlling degree (%) Velvetleaf (velvetleaf [15]; active ingredient 250 g/ha) [%] | Growth controlling degree (%) Velvetleaf (velvetleaf [16]) [%] | Growth controlling degree (%) Soybean (soybean [19]) [%] | Growth controlling degree (%) Prickly sida (prickly sida [20]) [%] | Growth controlling degree (%) Crabgrass (crabgrass [21]) [%] | other results
COCC(=O)N(C)C(c1cnccc1C(F)(F)F)C(C)C (stereo not drawn) [I-195] | 70 | 80 | 10 | 100 | 60 | 40 | 98 | 98 | 70 | 60 | 30 | 10 | 30 | 30 | 10 | 10 | 60 | 60 | 70 | 80 | Growth controlling degree (%) Barnyardgrass (barnyardgrass [17]; active ingredient 250 g/ha): 70%; Growth controlling degree (%) Corn (corn [18]; active ingredient 250 g/ha): 20%; Growth controlling degree (%) Japanese ribbon wapato (japanese ribbon wapato; active ingredient 250 g/ha): 80%; Growth controlling degree (%) Rice (rice (var. Nihonbare); active ingredient 250 g/ha): 20%
CC(C)C(c1cnccc1C(F)(F)F)N(C)C(=O)Cc1ccc(Cl)cc1Cl (stereo not drawn) [I-14] | 50 | 80 | – | – | – | – | – | – | 20 | 60 | – | – | – | – | 40 | – | 70 | 20 | 80 | 70 | Growth controlling degree (%) wheat (wheat [3]; active ingredient 1000 g/ha): 30%; Growth controlling degree (%) Japanese bulrush (japanese bulrush; active ingredient 500 g/ha): 98%; Growth controlling degree (%) Green foxtail (green foxtail [4]; active ingredient 1000 g/ha): 100%; Growth controlling degree (%) Rice (rice [5]; active ingredient 1000 g/ha): 10%; Growth controlling degree (%) Crabgrass (crabgrass [6]; active ingredient 1000 g/ha): 100%; Growth controlling degree (%) Tall morningglory (tall morningglory): 95%; Growth controlling degree (%) Barnyardgrass (barnyardgrass [7]; [22]): 100%; Growth controlling degree (%) Prickly sida (prickly sida [10]; active ingredient 1000 g/ha): 60%; Growth controlling degree (%) Soyabean (soybean [11]; active ingredient 1000 g/ha): 0%; Growth controlling degree (%) Redroot pigweed (redroot pigweed [12]; active ingredient 1000 g/ha): 85%; Growth controlling degree (%) Velvetleaf (velvetleaf [15]; active ingredient 1000 g/ha): 60%; Growth controlling degree (%) Barnyardgrass (barnyardgrass [17]; active ingredient 500 g/ha): 100%; Growth controlling degree (%) Corn (corn [18]; active ingredient 1000 g/ha): 20%; Growth controlling degree (%) Japanese ribbon wapato (japanese ribbon wapato; active ingredient 500 g/ha): 30%; Growth controlling degree (%) Rice (rice (var. Nihonbare); active ingredient 500 g/ha): 10%
CC(C)C(c1cnccc1C(F)(F)F)N(C)C(=O)C(Br)C(C)(C)C (stereo not drawn) [I-196] | 60 | 50 | 10 | 100 | 95 | 30 | 90 | 70 | 40 | 40 | 60 | 10 | 60 | 40 | 10 | 30 | 10 | 40 | 70 | 60 | Growth controlling degree (%) Barnyardgrass (barnyardgrass [17]; active ingredient 250 g/ha): 98%; Growth controlling degree (%) Corn (corn [18]; active ingredient 250 g/ha): 30%; Growth controlling degree (%) Japanese ribbon wapato (japanese ribbon wapato; active ingredient 250 g/ha): 50%; Growth controlling degree (%) Rice (rice (var. Nihonbare); active ingredient 250 g/ha): 10%
CC(C)C(c1cnccc1C(F)(F)F)N(C)C(=O)Cc1c(F)cccc1F (stereo not drawn) [I-13] | 80 | 80 | – | – | – | – | – | – | 20 | 80 | – | – | – | – | 70 | – | 80 | 90 | 70 | 80 | Growth controlling degree (%) wheat (wheat [3]; active ingredient 1000 g/ha): 98%; Growth controlling degree (%) Japanese bulrush (japanese bulrush; active ingredient 500 g/ha): 95%; Growth controlling degree (%) Green foxtail (green foxtail [4]; active ingredient 1000 g/ha): 100%; Growth controlling degree (%) Rice (rice [5]; active ingredient 1000 g/ha): 30%; Growth controlling degree (%) Crabgrass (crabgrass [6]; active ingredient 1000 g/ha): 100%; Growth controlling degree (%) Tall morningglory (tall morningglory): 95%; Growth controlling degree (%) Barnyardgrass (barnyardgrass [7]; [22]): 100%; Growth controlling degree (%) Prickly sida (prickly sida [10]; active ingredient 1000 g/ha): 90%; Growth controlling degree (%) Soyabean (soybean [11]; active ingredient 1000 g/ha): 20%; Growth controlling degree (%) Redroot pigweed (redroot pigweed [12]; active ingredient 1000 g/ha): 90%; Growth controlling degree (%) Velvetleaf (velvetleaf [15]; active ingredient 1000 g/ha): 100%; Growth controlling degree (%) Barnyardgrass (barnyardgrass [17]; active ingredient 500 g/ha): 100%; Growth controlling degree (%) Corn (corn [18]; active ingredient 1000 g/ha): 40%; Growth controlling degree (%) Japanese ribbon wapato (japanese ribbon wapato; active ingredient 500 g/ha): 90%; Growth controlling degree (%) Rice (rice (var. Nihonbare); active ingredient 500 g/ha): 30%
CC(C)C(c1cnccc1C(F)(F)F)N(C)C(=O)CC(C)(C)C (stereo not drawn) [I-194] | 70 | 50 | 20 | 98 | 100 | 40 | 100 | 100 | 50 | 70 | 40 | 10 | 50 | 40 | 20 | 30 | 10 | 40 | 70 | 80 | Growth controlling degree (%) Barnyardgrass (barnyardgrass [17]; active ingredient 250 g/ha): 98%; Growth controlling degree (%) Corn (corn [18]; active ingredient 250 g/ha): 10%; Growth controlling degree (%) Japanese ribbon wapato (japanese ribbon wapato; active ingredient 250 g/ha): 30%; Growth controlling degree (%) Rice (rice (var. Nihonbare); active ingredient 250 g/ha): 30%

— patent US20050239656A1, “Pyridine compounds or salts thereof and herbicides containing the same” (priority 2002, published 2005)
